Where two headings read alike, the source gives them in different places. Values belong to the molecule of their own block, whether it stands above or below them.
How the values were obtained:
[1] = system: production of various cytokines; test: In vitro studies of effects on production of various cytokines, potency compared with thalidomide; type: cell-based; conditions: in vitro cytokine production studies
Text: The results of these studies are described below.

AML cells = test: Mitogenic response to VEGF in AML cells; type: cell-based; conditions: by extinguishing ligand-induced Akt-phosphorylation
[2] = system: bone marrow progenitor formation; test: MDS vs normal bone marrow progenitor formation in pre-clinical models; type: cell-based
MDS patients [3] = test: Expanded clinical study with additional 16 MDS patients; type: in vivo, human
Text: The clinical study was expanded with additional 16 MDS patients for at least eight weeks. According to the IPSS, 13 of these patients were categorized as low- or intermediate-1-risk patients and three patients were grouped as intermediate-2- or high-risk patients. According to the FAB classification, there were 11 patients with refractory anemia (RA) or RA with ringed sideroblasts (RARS), and five patients with RA with excess blasts (RAEB), RAEB in transformation (RAEB-T). […] Among these 16 patients who completed at least 8 weeks of monitoring, nine patients achieved an erythroid response as assessed by the International MDS Working Group Criteria. The erythroid responses consisted of transfusion independence in seven previously transfusion-dependent patients, a >2 g/dL rise in blood hemoglobin concentration in one patient in with transfusion-independent anemia, and a >50% decrease in RBC transfusion requirement in one transfusion-dependent patient. […] In addition, complete cytogenetic responses developed in five in eight patients with abnormal karyotypes at baseline. These five patients with complete cytogenetic responses all had the Del5q31-33 abnormality, which has been discovered to be a good prognostic factor for MDS. Indeed, all five patients who enrolled in this study with 5q-syndrome achieved a complete cytogenetic response and a major erythroid response.

TNF-α production [4] = conditions: LPS-stimulated PBMC, cited from earlier work; for IC50: read-out: IC50 for inhibiting production of TNF-α
TNF-α production [5] = conditions: LPS-stimulated human whole blood, cited from earlier work
MDS patients [6] = test: Clinical study in MDS patients with RBC transfusion-dependence or symptomatic anemia
MDS patients [7] = conditions: MDS patients treated with recombinant human EPO; cited from earlier work
[8] = 25 mg daily, initial ten patients
[9] = hematologic responses, nine evaluable

- need for dose reduction by completion of eight weeks therapy (MDS patients [3]; all patients with starting dose of 25 mg): required dose reduction
- grade 3 fatigue necessitating dose reduction (MDS patients [6]; [8]): 1 patient
- Grade 1,2 drug-related myalgia (MDS patients [6]; limited to the 25 mg dose): 1 patient
- Grade 1,2 drug-related pruritus or itchy scalp (MDS patients [6]; limited to the 25 mg dose): 6 patients
Molecule: Nc1cccc2c1CN(C1CCC(=O)NC1=O)C2=O (stereo not shown)
- potency relative to thalidomide, in all studies [1]: at least 50 times
- mitogenic response to VEGF (AML cells): abrogates mitogenic response to VEGF in AML cells
- MDS vs normal bone marrow progenitor formation [2]: selectively suppresses MDS vs normal bone marrow progenitor formation
- patients with 5q-syndrome who achieved a complete cytogenetic response and a major erythroid response (MDS patients [3]; all enrolled patients with 5q-syndrome): five
- patients who achieved an erythroid response (International MDS Working Group Criteria) (MDS patients [3]; among 16 patients with at least 8 weeks of monitoring, start 25 mg or 10 mg daily): nine
- apoptotic index for myelodysplastic progenitors (MDS patients [3]; association with therapy): increased apoptotic index
- normal hematopoietic progenitor cells (MDS patients [3]; association with therapy): recovery of normal hematopoietic progenitor cells
- transfusion independence in previously transfusion-dependent patients (MDS patients [3]; erythroid responses): seven
- minor platelet response (MDS patients [3]; human, in vivo): One
- complete cytogenetic responses (MDS patients [3]; in eight patients with abnormal karyotypes at baseline): five
- major erythroid response (MDS patients [3]; of 16 patients): eight
- minor erythroid response (MDS patients [3]; of 16 patients): one
- >50% decrease in RBC transfusion requirement (MDS patients [3]; transfusion-dependent patient): one
- >2 g/dL rise in blood hemoglobin concentration (MDS patients [3]; transfusion-independent anemia): one
- IC50 for inhibiting production of TNF-α (TNF-α production [4]): ~0.0259 µg/mL
- IC50 (TNF-α production [4]): ~100 nM
- IC50 for inhibiting production of TNF-α (TNF-α production [5]): ~0.1036 µg/mL
- IC50 (TNF-α production [5]; read-out: IC50 for inhibiting production of TNF-α): ~480 nM
- tolerability (MDS patients [6]; 10 mg continuous oral daily dose): well-tolerated with minimal myelosuppression
- myelosuppression (higher than grade 3 common toxicity criteria or 50% decrease in leukocyte and platelet counts) necessitating dose reduction (MDS patients [6]; [8]): 9 patients
- patients with IPSS Low/Int-1 who experienced hematologic benefit (MDS patients [6]; 6/7 patients with IPSS Low/Int-1): 86%
- complete or partial cytogenetic remission (decrease in abnormal metaphases of more than 50%) (MDS patients [6]; among five patients evaluable for cytogenetic response): three
- normalization of blast percentage (MDS patients [6]; among responders): 1 patient
- patients who discontinued therapy prematurely (<2 weeks) (MDS patients [6]; due to cholecystitis, autoimmune hemolytic anemia, or patient refusal, of 15 patients): three
- RBC transfusion-independence (MDS patients [6]; [9]): 4 patients
- decrease in RBC transfusions of more than 50% (MDS patients [6]; [9]): 1 patient
- increase in Hgb of more than 1.5 g (MDS patients [6]; [9]): 1 patient
- minor platelet response (increase of more than 30,000/μL) (MDS patients [6]; number of responses): one
- evaluable patients who experienced hematologic benefit (MDS patients [6]; of nine evaluable patients, oral 25 mg daily reduced to 10 mg, IWG criteria): 66%
- overall clinical activity (MDS patients [6]; patients with low/intermediate-1 risk MDS): remarkable erythropoietic and cytogenetic remitting activity

Molecule: recombinant human EPO: recombinant human erythropoietin (EPO), a hematopoietic growth factor
- patients with sustained improvement in hemoglobin or decrease in transfusion requirement (MDS patients [7]): less than 25%

Molecule: O=C1CCC(N2C(=O)c3ccccc3C2=O)C(=O)N1 (racemic) [Thalidomide, 2-(2,6-dioxo-3-piperidinyl)-1H-isoindole-1,3(2H)-dione, reference compound]
- IC50 for inhibiting production of TNF-α (TNF-α production [4]): ~50.2 µg/mL
- IC50 (TNF-α production [4]): ~194000 nM

Source: patent publication US7863297B2, “Methods of using 4-(amino)-2-(2,6-dioxo(3-piperidly))-isoindoline-3-dione for the treatment of myelodysplastic syndromes” (Celgene Corporation, priority 2002, dated 2011)
